This is an account of results in patent publication US9745328B2, “Flap modulators” (JANSSEN PHARMACEUTICA NV, priority 2013, dated 2017).

In the assay the target is human FLAP (Homo sapiens (Human), UniProt P20292). The assay is described as follows: FLAP binding assay (HTRF format). To be noted: human FLAP wild type. In short, it runs like this: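 Binding values are averages from two separate assay plates, with each sample run in duplicate per plate. Data are expressed as an HTRF ratio.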
(In general: Time-resolved FRET reads energy transfer from a long-lived donor to a nearby acceptor.)

Setting [1] is: a calculated value of 0.000 indicates Ki less than 1 nM.

SMILES strings stand for the structures. Counter-ions that a name gives are not always drawn. Where only a bound is given, the exact number is not on record here.

Sequence of human FLAP (P20292 whole entry): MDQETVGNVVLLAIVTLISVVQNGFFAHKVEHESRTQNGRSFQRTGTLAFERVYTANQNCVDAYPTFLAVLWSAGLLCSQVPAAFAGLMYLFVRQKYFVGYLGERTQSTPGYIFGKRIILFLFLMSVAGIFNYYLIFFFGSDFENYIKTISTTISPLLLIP

As a reminder, the Ki is the dissociation constant of the complex between target and ligand, obtained from inhibition or displacement. In turn, `CC(C)CNS(=O)(=O)c1ccccc1-c1ccc(-c2cnc(N)nc2)c(F)c1` [Example 294, 4′-(2-Aminopyrimidin-5-yl)-3′-fluoro-N-(2-methylpropyl)biphenyl-2-sulfonamide trifiuoroacetic acid salt] showed a Ki (Table 6 (additional runs)) of 2.4 nM.
On the same count and under the same terms, next, `CCNS(=O)(=O)c1ccccc1-c1ccc(-c2cnc(N)nc2)c(F)c1` [Example 295, 4′-(2-Aminopyrimidin-5-yl)-N-ethyl-3′-fluorobiphenyl-2-sulfonamide trifluoroacetic acid salt]: 20 nM; `CC(C)(NS(=O)(=O)c1ccccc1-c1ccc(-c2cnc(N)nc2)c(F)c1)C(F)(F)F` [Example 296, 4′-(2-Aminopyrimidin-5-yl)-3′-fluoro-N-(2,2,2-trifluoro-1,1-dimethylethyl)biphenyl-2-sulfonamide trifluoroacetic acid salt]: 3.1 nM.
In turn, `C[C@H](NS(=O)(=O)c1ccccc1-c1ccc(-c2cnc(N)nc2)c(F)c1)C(F)(F)F` [Example 297, 4′-(2-Aminopyrimidin-5-yl)-3′-fluoro-N-[(1S)-2,2,2-trifluoro-1-methylethyl]biphenyl-2-sulfonamide trifluoroacetic acid salt] gave an inhibitory constant (Ki) (Table 6 (additional runs)) of 3.2 nM.
Same read-out and setting: next, `Nc1ncc(-c2ccc(-c3ccccc3S(=O)(=O)N3CCCC3)cc2F)cn1` [Example 298, 5-[3-Fluoro-2′-(pyrrolidin-1-ylsulfonyl)biphenyl-4-yl]pyrimidin-2-amine trifluoroacetic acid salt]: 80.6 nM; `CC(C)(C)NS(=O)(=O)c1ccccc1-c1ccc(-c2cnc(N)nc2)c(F)c1` [Example 305, 4′-(2-aminopyrimidin-5-yl)-N-(tert-butyl)-3′-fluoro[1,1′-biphenyl]-2-sulfonamide trifluoroacetic acid salt]: 1.6 nM; `C[C@H](NS(=O)(=O)c1ccccc1-c1ccc(-c2cnc(N)nc2)c(F)c1)C(=O)OC(C)(C)C` [Example 307, tert-Butyl N-{[4′-(2-aminopyrimidin-5-yl)-3′-fluorobiphenyl-2-yl]sulfonyl}-L-alaninate]: 4.5 nM.
The same measure, in the same setting: to `Nc1ncc(-c2ccc(-c3ccccc3S(=O)(=O)N3CC4(COC4)C3)cc2F)cn1` [Example 312, 5-(2′-(2-oxa-6-azaspiro[3.3]heptan-6-ylsulfonyl)-3-fluoro-[1,1′-biphenyl]-4-yl)pyrimidin-2-amine] belongs 323 nM.
Under “Table 6 (additional runs)”, `N#CC1CN(S(=O)(=O)c2ccccc2-c2ccc(-c3cnc(N)nc3)c(F)c2)C1` [Example 314, 1-((4′-(2-aminopyrimidin-5-yl)-3′-fluoro-[1,1′-biphenyl]-2-yl)sulfonyl)azetidine-3-carbonitrile] yielded an inhibition constant Ki of 88.8 nM.
Same read-out and setting: to `Nc1ncc(-c2ccc(-c3ccccc3S(=O)(=O)N3CC(O)(C(F)(F)F)C3)cc2F)cn1` [Example 315] belongs 1.3 nM; to `Nc1ncc(-c2ccc(-c3ccccc3S(=O)(=O)Cc3nc(C4CC4)no3)cc2F)cn1` [Example 321, 5-(2′-{[(3-Cyclopropyl-1,2,4-oxadiazol-5-yl)methyl]sulfonyl}-3-fluorobiphenyl-4-yl)pyrimidin-2-amine], 505 nM.
Same read-out and setting: to `CNS(=O)(=O)c1cc(C(F)(F)F)ccc1-c1ccc(-c2cnc(N)nc2)c(F)c1` [Example 325, 4′-(2-aminopyrimidin-5-yl)-3′-fluoro-N-methyl-4-(trifluoromethyl)biphenyl-2-sulfonamide] belongs 4.7 nM; to `CCNS(=O)(=O)c1cc(C(F)(F)F)ccc1-c1ccc(-c2cnc(N)nc2)c(F)c1` [Example 327], 1.8 nM; to `Nc1ncc(-c2ccc(-c3ccccc3Sc3ccnc(N)n3)cc2F)cn1` [Example 335, 4-{[4′-(2-Aminopyrimidin-5-yl)-3′-fluorobiphenyl-2-yl]sulfanyl}pyrimidin-2-amine formate salt], 1.9 nM.
In turn, `CC(C)(C)NS(=O)(=O)c1ccccc1-c1ccc(-c2ccc(N)nc2)c(F)c1` [Example 342] displayed an inhibition constant Ki (Table 6 (additional runs)) of 1.8 nM.
Under “Table 6 (additional runs)”, `CCN(CC)S(=O)(=O)c1ccccc1-c1ccc(-c2ccc(N)nc2)c(F)c1` [Example 343, 4′-(6-aminopyridin-3-yl)-N,N-diethyl-3′-fluoro-[1,1′-biphenyl]-2-sulfonamide] returned an inhibitory constant (Ki) of 4.3 nM.
On the same count and under the same terms, to `Nc1ccc(-c2ccc(-c3ccccc3S(=O)(=O)NC3CCCCC3)cc2F)cn1` [Example 346, 4′-(6-Aminopyridin-3-yl)-N-cyclohexyl-3′-fluoro-[1,1′-biphenyl]-2-sulfonamide] belongs 4.5 nM; to `CCC(C)(C)NS(=O)(=O)c1ccccc1-c1ccc(-c2ccc(N)nc2)c(F)c1` [Example 349, 4′-(6-aminopyridin-3-yl)-3′-fluoro-N-(tert-pentyl)-[1,1′-biphenyl]-2-sulfonamide], 0.9 nM.
On the same count and under the same terms, to `CC(C)(NS(=O)(=O)c1ccccc1-c1ccc(-c2ccc(N)nc2)c(F)c1)C(F)(F)F` [Example 350, 4′-(6-aminopyridin-3-yl)-3′-fluoro-N-(1,1,1-trifluoro-2-methylpropan-2-yl)-[1,1′-biphenyl]-2-sulfonamide] belongs 2.4 nM; to `CC1(NS(=O)(=O)c2ccccc2-c2ccc(-c3ccc(N)nc3)c(F)c2)CCC1` [Example 353, 4′-(6-aminopyridin-3-yl)-3′-fluoro-N-(1-methylcyclobutyl)-[1,1′-biphenyl]-2-sulfonamide], 1.4 nM; to `CC(C)(C)OC(=O)N1CC(O)(CNS(=O)(=O)c2ccccc2-c2ccc(-c3ccc(N)nc3)c(F)c2)C1` [Example 357, tert-butyl 3-((4′-(6-aminopyridin-3-yl)-3′-fluoro-[1,1′-biphenyl]-2-ylsulfonamido)methyl)-3-hydroxyazetidine-1-carboxylate], 114 nM.
Still for that read-out and setting: to `Nc1ccc(-c2ccc(-c3ccccc3S(=O)(=O)N3CCC(CCO)CC3)cc2F)cn1` [Example 359] belongs 4.3 nM.
In turn, `C[C@@H](CO)NS(=O)(=O)c1ccccc1-c1ccc(-c2cnc3[nH]ccc3c2)c(F)c1` [Example 362, 3′-Fluoro-N-[(1S)-2-hydroxy-1-methylethyl]-4′-(1H-pyrrolo[2,3-b]pyridin-5-yl)biphenyl-2-sulfonamide] displayed a Ki (Table 6 (additional runs)) of 1.2 nM.
`C[C@H](CO)NS(=O)(=O)c1ccccc1-c1ccc(-c2cnc3[nH]ccc3c2)c(F)c1` [Example 363, 3′-Fluoro-N-[(1R)-2-hydroxy-1-methylethyl]-4′-(1H-pyrrolo[2,3-b]pyridin-5-yl)biphenyl-2-sulfonamide]: the inhibition constant Ki (Table 6 (additional runs)) was 0.6 nM.
As to `O=C1NCC[C@@H]1NS(=O)(=O)c1ccccc1-c1ccc(-c2cnc3[nH]ccc3c2)c(F)c1` [Example 364, 3′-Fluoro-N-[(3S)-2-oxopyrrolidin-3-yl]-4′-(1H-pyrrolo[2,3-b]pyridin-5-yl)biphenyl-2-sulfonamide], the Ki (Table 6 (additional runs)) was found to be 2.5 nM.
Under “Table 6 (additional runs)”, `NS(=O)(=O)c1ccccc1-c1ccc(-c2cnc3[nH]ccc3c2)c(F)c1` [Example 368, 3′-Fluoro-4′-(1H-pyrrolo[2,3-b]pyridin 5-yl)biphenyl-2-sulfonamide] registered an inhibitory constant (Ki) of 13.2 nM.
Compound `CN(C)S(=O)(=O)c1ccccc1-c1ccc(-c2cnc3[nH]ccc3n2)c(F)c1` [Example 370, 3′-Fluoro-N,N-dimethyl-4′-(5H-pyrrolo[2,3-b]pyrazin-2-yl)biphenyl-2-sulfonamide] returned a Ki (Table 6 (additional runs)) of 1.9 nM.
For the setting “Table 6 (additional runs)”, `CC(C)(C)NS(=O)(=O)c1ccccc1-c1ccc(-c2cnc3[nH]ccc3n2)c(F)c1` [Example 371, N-tert-Butyl-3′-fluoro-4′-(5H-pyrrolo[2,3-b]pyrazin-2-yl)biphenyl-2-sulfonamide] came in with a Ki of 0.7 nM.
In turn, `O=S(=O)(c1ccccc1-c1ccc(-c2cnc3[nH]ccc3n2)c(F)c1)N1CCCCC1` [Example 374, 2-[3-Fluoro-2′-(piperidin-1-ylsulfonyl)biphenyl-4-yl)-5H-pyrrolo[2,3-b]pyrazine] yielded a Ki (Table 6 (additional runs)) of 1.2 nM.
In the case of `CNS(=O)(=O)c1ccccc1-c1ccc(-c2cnc3[nH]ccc3n2)c(F)c1` [Example 379, 3′-Fluoro-N-methyl-4′-(5H-pyrrolo[2,3-b]pyrazin-2-yl)biphenyl-2-sulfonamide], the Ki (Table 6 (additional runs)) is 1.3 nM.
`O=S1(=O)CCN(S(=O)(=O)c2ccccc2-c2ccc(-c3cnc4[nH]ccc4n3)c(F)c2)CC1` [Example 382, 2-{2′-[(1,1-Dioxidothiomorpholin-4-yl)sulfonyl]-3-fluorobiphenyl-4-yl}-5H-pyrrolo[2,3-b]pyrazine]: the inhibitory constant (Ki) was 0.5 nM (Table 6 (additional runs)) and under 1 nM under setting [1].
Take `CSc1ccc(F)cc1-c1ccc(-c2cnc3[nH]ccc3n2)c(F)c1` [Example 383]: the inhibitory constant (Ki) (Table 6 (additional runs)) stood at 7.9 nM.
For `CCSc1ccccc1-c1ccc(-c2cnc3[nH]ccc3n2)c(F)c1` [Example 384, 2-[2′-(Ethylsulfanyl)-3-fluorobiphenyl-4-yl]-5H-pyrrolo[2,3-b]pyrazine], the Ki (Table 6 (additional runs)) was 3.9 nM.
The same measure, in the same setting: to `O=S(=O)(c1ccccc1-c1ccc(-c2cnc3c(c2)OCCN3)c(F)c1)N1CCCCC1` [Example 386, 7-[3-Fluoro-2′-(piperidin-1-ylsulfonyl)biphenyl-4-yl]-3,4-dihydro-2H-pyrido[3,2-b][1,4]oxazine] belongs 1.8 nM; to `C[C@@H](CO)NS(=O)(=O)c1ccccc1-c1ccc(-c2cnc3c(c2)OCCN3)c(F)c1` [Example 388, 4′-(3,4-Dihydro-2H-pyrido[3,2-b]l[1,4]oxazin-7-yl)-3′-fluoro-N-[(1S)-2-hydroxy-1-methylethyl]biphenyl-2-sulfonamide], 1.7 nM; to `NC1CCN(S(=O)(=O)c2ccccc2-c2ccc(-c3cnc4c(c3)OCCN4)c(F)c2)CC1` [Example 389, 1-{[4′-(3,4-Dihydro-2H-pyrido[3,2-b][1,4]oxazin-7-yl)-3′-fluorobiphenyl-2-yl]sulfonyl}piperidin-4-amine], 13.1 nM.
Turning to `C[C@H](CO)NS(=O)(=O)c1ccccc1-c1ccc(-c2cnc3c(c2)OCCN3)c(F)c1` [Example 390, 4′-(3,4-Dihydro-2H-pyrido[3,2-b][1,4]oxazin-7-yl)-3′-fluoro-N-[(1R)-2-hydroxy-1-methylethyl]biphenyl-2-sulfonamide], the inhibition constant Ki reads like this: (Table 6 (additional runs)) 0.4 nM; under setting [1], under 1 nM.
With `O=S1(=O)CCN(S(=O)(=O)c2ccccc2-c2ccc(-c3cnc4c(c3)OCCN4)c(F)c2)CC1` [Example 392], the inhibitory constant (Ki) (Table 6 (additional runs)) came out at 0.9 nM.
